This test has as its target T1, Muscarinic acetylcholine receptor M2 (Rattus norvegicus, UniProt P10980).
T1 sequence (P10980 whole entry): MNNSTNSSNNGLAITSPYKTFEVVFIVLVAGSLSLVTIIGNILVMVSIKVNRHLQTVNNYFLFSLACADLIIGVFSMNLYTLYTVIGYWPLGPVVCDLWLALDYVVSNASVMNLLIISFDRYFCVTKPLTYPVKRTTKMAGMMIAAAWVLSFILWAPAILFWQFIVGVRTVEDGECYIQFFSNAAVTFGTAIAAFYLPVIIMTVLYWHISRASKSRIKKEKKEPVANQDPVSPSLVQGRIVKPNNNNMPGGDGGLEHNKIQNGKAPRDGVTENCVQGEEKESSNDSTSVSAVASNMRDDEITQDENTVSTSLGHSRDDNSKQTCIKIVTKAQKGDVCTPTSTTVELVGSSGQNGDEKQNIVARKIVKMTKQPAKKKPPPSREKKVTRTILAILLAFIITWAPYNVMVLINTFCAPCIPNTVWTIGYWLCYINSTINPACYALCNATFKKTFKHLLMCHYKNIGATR
Briefly: Affinity for rat Muscarinic acetylcholine receptor M2.

Several values for one entry are separate records, joined by “and”; a condition that tells them apart may be missing. Equal entries are not always repeated.

Regarding `Cc1ccc(O)c(C(CCN2C[C@H]3C[C@H]3C2C)c2ccccc2)c1` (stereo not given in full), the Ki is 34 nM and 42 nM. In turn, `Cc1ccc(OCc2ccccc2)c(C(CCN2C[C@@]3(C)C[C@@]3(C)C2)c2ccccc2)c1` (stereo not given in full) gave a Ki above 10000 nM. `Cc1ccc(O)c(C(CCN2C[C@H]3C[C@@]3(C)C2)c2ccccc2)c1` (stereo not given in full) displayed a Ki of 221 nM.

Consider `O=C(NCC#CCN1CC2CC2C1)C(O)(c1ccc(F)cc1)c1ccc(F)cc1` (stereo not given), for which affinity was put at a Ki of 736 nM.

Consider `O=C(NCC#CCN1CC2CC2C1)C(O)(c1ccccc1)c1ccccc1` (stereo not given), for which the Ki was found to be 639 nM. In the case of `Cc1ccc(OCc2ccccc2)c(C(CCN2C[C@H]3C[C@H]3C2)c2ccccc2)c1` (stereo not given in full), the Ki was above 10000 nM. For `Cc1ccc(OCc2ccccc2)c(C(CCN2C[C@H]3C[C@H]3C2C)c2ccccc2)c1` (stereo not given in full), the Ki was above 10000 nM. In the case of `Cc1ccc(O)c(C(CCN2C[C@@]3(C)C[C@@]3(C)C2)c2ccccc2)c1` (stereo not given in full) it was above 1000 nM. For `O=C(NCC#CCN1CC2CC2C1)C(O)(c1ccccc1)C1CCCCC1` (stereo not given), affinity was put at a Ki of 3580 nM. In the case of `Cc1ccc(O)c(C(CCN2CC3C[C@@H]3C2)c2ccccc2)c1` (single isomer, unassigned) it was 105 nM.

Usually Ki stands for a measure of affinity in units of concentration, obtained from inhibition or displacement. A low value points to higher affinity.

These data come from ChEMBL document CHEMBL1143535 (Bioorg Med Chem Lett, 2005).
